This experiment concerns the target human GLP-1R (Homo sapiens, UniProt P43220, G168S). The experiment in a line: CHO GLP-1R Clone H6 cAMP HTRF agonist assay (Assay 1, high receptor density). As to conditions: for EC50: CHO GLP-1R clone H6, cAMP HTRF, geometric mean; for Emax: arithmetic mean. The class given is cell-based. An excerpt:
In Table 5 and Table 6, assay data are presented to two (2) significant figures as the geometric mean (EC50s) and arithmetic mean (Emax) based on the number of replicates listed (Number). A blank cell means there was no data for that Example or the Emax was not calculated.
Background: In TR-FRET formats the signal depends on donor and acceptor labels being close together.

Setting [1] is: CHO GLP-1R clone H6, relative to saturating GLP-1 (1 μM), read-out: Assay 1 Emax (%).

Where two headings read alike, the source gives them in different places.

Chain of human GLP-1R (P43220 24-463 G168S): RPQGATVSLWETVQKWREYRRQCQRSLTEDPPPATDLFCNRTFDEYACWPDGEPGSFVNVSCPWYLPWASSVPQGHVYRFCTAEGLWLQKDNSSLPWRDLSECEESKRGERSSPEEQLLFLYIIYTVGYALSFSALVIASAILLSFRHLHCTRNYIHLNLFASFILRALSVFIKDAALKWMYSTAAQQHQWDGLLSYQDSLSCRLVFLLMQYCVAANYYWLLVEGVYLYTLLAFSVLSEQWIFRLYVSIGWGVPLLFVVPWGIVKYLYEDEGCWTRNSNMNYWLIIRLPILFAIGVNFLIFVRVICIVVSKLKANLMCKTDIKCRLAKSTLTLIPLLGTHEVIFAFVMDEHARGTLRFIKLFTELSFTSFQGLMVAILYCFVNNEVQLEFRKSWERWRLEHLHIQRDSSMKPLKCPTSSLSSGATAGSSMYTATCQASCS

For the compound `Cn1cncc1Cn1c(CN2CCC(c3cccc(OCc4ccc(F)cc4F)n3)CC2)nc2ccc(C(=O)O)cc21` [Compound 186B, 2-[(4-{6-[(2,4-difluorobenzyl)oxy]pyridin-2-yl}piperidin-1-yl)methyl]-1-[(1-methyl-1H-imidazol-5-yl)methyl]-1H-benzimidazole-6-carboxylic acid], a half-maximal effect (EC50) was put at 1700 nM. The maximal effect (Emax) (commonly the size of the effect at its maximum, as opposed to the concentration needed) under setting [1] was 82%. With `COCCn1c(CN2CCN(c3nc(OCc4ccc(Cl)cc4F)ccc3F)CC2)nc2ccc(C(=O)O)cc21` [Compound 179B, 2-[(4-{6-[(4-chloro-2-fluorobenzyl)oxy]-3-fluoropyridin-2-yl}piperazin-1-yl)methyl]-1-(2-methoxyethyl)-1H-benzimidazole-6-carboxylic acid], it took 1600 nM to reach a half-maximal effect (EC50). Also, under setting [1], the Emax was 83%. On to `COCCn1c(CN2CCC(c3cccc4c3OC(C)(c3ccc(C#N)cn3)O4)CC2)nc2ccc(C(=O)O)cc21` (stereo not drawn) [Compound 98B, ammonium 2-({4-[2-(5-cyanopyridin-2-yl)-2-methyl-1,3-benzodioxol-4-yl]piperidin-1-yl}methyl)-1-(2-methoxyethyl)-1H-benzimidazole-6-carboxylate, ENT-X2], for which the Emax (relative to saturating full agonist GLP-1 (1 μM), read-out: Assay 1 Emax) is 89%. On to `CCN1CCC[C@@H]1Cn1c(CN2CCC(c3cccc(OCc4ccc(Cl)cc4F)n3)CC2)nc2ccc(C(=O)O)cc21` [Compound 329B, 2-[(4-{6-[(4-chloro-2-fluorobenzyl)oxy]pyridin-2-yl}piperidin-1-yl)methyl]-1-{[(2R)-1-ethylpyrrolidin-2-yl]methyl}-1H-benzimidazole-6-carboxylic acid], for which a half-maximal effect (EC50) was put at 4000 nM. The Emax under setting [1] worked out at 91%. Take `O=C(O)c1ccc2nc(CN3CCC(c4cccc(OCc5ccc(Cl)cc5F)n4)CC3)n(C[C@H]3CCOC3)c2c1` [Compound 121B, 2-[(4-{6-[(4-chloro-2-fluorobenzyl)oxy]pyridin-2-yl}piperidin-1-yl)methyl]-1-[(3R)-tetrahydrofuran-3-ylmethyl]-1H-benzimidazole-6-carboxylic acid]: the half-maximal effective concentration (EC50) – broadly, the concentration at which the effect is half-maximal – was more than 20000 nM.

On to `O=C(O)c1ccc2nc(CN3CCC(c4cccc(OCc5ccc(Cl)cc5F)n4)CC3)n(C[C@H]3CCCO3)c2c1` [Compound 343B, 2-[(4-{6-[(4-chloro-2-fluorobenzyl)oxy]pyridin-2-yl}piperidin-1-yl)methyl]-1-[(2R)-tetrahydrofuran-2-ylmethyl]-1H-benzimidazole-6-carboxylic acid], for which the response was half-maximal at 510 nM (EC50). In addition, under setting [1], the maximum response (Emax) is 64%. `N#Cc1ccc(COc2cccc(C3CCN(Cc4nc5ccc(C(=O)O)nc5n4Cc4ncco4)CC3)n2)c(F)c1` [Compound 214B, 2-[(4-{6-[(4-cyano-2-fluorobenzyl)oxy]pyridin-2-yl}piperidin-1-yl)methyl]-3-(1,3-oxazol-2-ylmethyl)-3H-imidazo[4,5-b]pyridine-5-carboxylic acid]: the Emax under setting [1] stood at 71%. Take `Cn1cc(Cn2c(CN3CCC(c4cccc(OCc5ccc(Cl)cc5F)n4)CC3)nc3ccc(C(=O)O)cc32)nn1` [Compound 311B, 2-[(4-{6-[(4-chloro-2-fluorobenzyl)oxy]pyridin-2-yl}piperidin-1-yl)methyl]-1-[(1-methyl-1H-1,2,3-triazol-4-yl)methyl]-1H-benzimidazole-6-carboxylic acid]: a half-maximal response (EC50) required 350 nM. Also, the Emax under setting [1] was 71%. With `COCCn1c(CN2CCN(c3cccc(OCc4ccc(C#N)cc4)n3)C[C@@H]2C)nc2ccc(C(=O)O)cc21` [Compound 172B, 2-{[(2S)-4-{6-[(4-cyanobenzyl)oxy]pyridin-2-yl}-2-methylpiperazin-1-yl]methyl}-1-(2-methoxyethyl)-1H-benzimidazole-6-carboxylic acid], the response was half-maximal at 2900 nM (EC50).

As to `COCc1cc(Cn2c(CN3CCC(c4cccc(OCc5ccc(Cl)cc5F)n4)CC3)nc3ccc(C(=O)O)cc32)[nH]n1` [Compound 337B, 2-[(4-{6-[(4-chloro-2-fluorobenzyl)oxy]pyridin-2-yl}piperidin-1-yl)methyl]-1-{[3-(methoxymethyl)-1H-pyrazol-5-yl]methyl}-1H-benzimidazole-6-carboxylic acid], the EC50 turned out to be 560 nM. The maximal response (Emax) under setting [1] was determined as 72%.
